Measured values taken from ChEMBL document CHEMBL1201862, “PubChem BioAssay data set” (2004).
Calls of active or inactive are those of the source. For most assays here, no stated cut-off is given here; in the data, actives have a measured EC50 and inactives only a lower limit.

Columns and labels:
[1] = system: H4; experiment: Luminescence Cell-Based Dose Response HTS to Identify Activators of 5'UTR Stem-Loop Driven Prion Protein mRNA Translation in H4 Neuroglioblastoma Cells. [Related pubchem assays: 1829 (Project Summary), 1814 (Primary HTS)]; assay type: functional; details: Homo sapiens
[2] = Luminescence Cell-Based Dose Response HTS to Identify Activators of Luciferase Translation or Activity in H4 […] Cells. [Related pubchem assays: 1829 (Project Summary), 1814 (Primary HTS)]; assay type: functional
[3] = Luminescence Cell-Based Dose Confirmation HTS to Identify Activators of 5'UTR Stem-Loop Driven Alpha-Synuclein mRNA Translation in H4 Neuroglioblastoma Cells. [Related pubchem assays: 1829 (Project Summary), 1814 (Primary HTS)]; assay type: functional
[4] = molecular target: Nonstructural protein 1 (Influenza A virus, UniProt Q194T2); assay type: functional, Influenza A virus (A/California/07/2009(H1N1))
[5] = cells; assay type: functional, cell-based
[6] = molecular target: T1, Ubiquitin-conjugating enzyme E2 N (Homo sapiens, UniProt P61088); assay type: functional;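 further: Dose-response confirmation in a TR-FRET assay detecting UBC13-driven polyubiquitin chain formation, inhibition measured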
T1 sequence (P61088 whole entry): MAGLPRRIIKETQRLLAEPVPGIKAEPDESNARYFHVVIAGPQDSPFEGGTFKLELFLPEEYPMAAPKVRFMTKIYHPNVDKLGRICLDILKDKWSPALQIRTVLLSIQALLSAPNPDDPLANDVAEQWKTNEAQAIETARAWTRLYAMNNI

[7] = NIH3T3 cell viability loss – ATP luminescence, mouse fibroblasts, counter-screen, dose response (AID 2010); assay type: functional, cell-based;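 further: cells exposed to compound for about 90 hours before reading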
[8] = fluconazole-exposed Candida albicans growth modulators – fluorescence, retest, confirmation (AID 2467); assay type: functional, cell-based
[9] = NIH-3T3 fibroblast cytotoxicity, dose response, cytotoxicity control, cell-based, fluorescence, Alamar Blue, secondary assay (AID 2327); assay type: functional;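 further: NIH-3T3 mouse fibroblasts cultured with fluconazole at 8 µg/mL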
[10] = cells; assay type: functional, cell-based; remark: listed apart in the source
[11] = Trypanosoma cruzi growth suppression in host cells – NIH3T3 host cells, beta-gal luminescence, confirmation (AID 2044); assay type: functional, cell-based;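 further: intracellular parasites grown in NIH/3T3 mouse fibroblasts as host cells; luminescent beta-galactosidase reporter signal from transgenic T. cruzi replicating inside host cells; inhibitors lower the luminescence signal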
[12] = system: Vero; experiment: cells; assay type: functional; details: Chlorocebus sabaeus
[13] = molecular target: Genome polyprotein (dengue virus type 2, UniProt P29990); experiment: flavivirus cap methylation enzyme inhibition – biochemical, confirmation dose response, primary screen (AID 588689); assay type: functional
[14] = molecular target: T2, Heat shock factor protein 1 (Mus musculus, UniProt P38532); experiment: enhancement of HSF1-driven luciferase signal – cell-based, NIH3T3, luminescence, dose retest, confirmation (AID 435004); assay type: functional;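 further: stress induced by proteasome inhibitor MG132 added 30 min after compound; luciferase reporter driven by HSF1 response element in NIH3T3 cells; actives raise luminescence as potentiators of the MG132 stress response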
T2 sequence (P38532 whole entry): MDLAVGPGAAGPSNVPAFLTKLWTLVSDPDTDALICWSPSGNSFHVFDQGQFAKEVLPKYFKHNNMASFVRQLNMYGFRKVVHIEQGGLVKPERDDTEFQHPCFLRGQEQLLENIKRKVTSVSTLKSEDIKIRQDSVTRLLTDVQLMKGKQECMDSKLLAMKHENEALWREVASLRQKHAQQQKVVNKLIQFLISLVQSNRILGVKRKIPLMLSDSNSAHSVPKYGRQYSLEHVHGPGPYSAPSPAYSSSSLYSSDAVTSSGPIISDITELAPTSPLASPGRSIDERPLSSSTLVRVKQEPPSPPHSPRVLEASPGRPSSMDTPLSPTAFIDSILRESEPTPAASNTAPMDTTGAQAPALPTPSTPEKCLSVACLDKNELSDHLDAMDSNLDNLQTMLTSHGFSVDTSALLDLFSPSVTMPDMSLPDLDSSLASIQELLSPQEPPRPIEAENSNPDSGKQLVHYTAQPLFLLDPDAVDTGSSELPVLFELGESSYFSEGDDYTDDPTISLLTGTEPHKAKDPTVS

[15] = off-target signal loss in HeLa-CEM21 co-culture – HeLa F-luc CTL cells, cherry-picked, counter-screen for HIV-1 Env fusion inhibitor project, dose response (AID 652040); assay type: functional, cell-based;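 further: potency for signal decrease marking cytotoxic or nonspecific inhibition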
[16] = HIV-1 AD8 envelope cell-cell fusion blockers – cherry-pick, dose response (AID 652062); assay type: functional, cell-based;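 further: luciferase signal from cell-cell fusion driven by HIV-1 clade B AD8 Env; potency is for inhibitors of fusion seen as a drop in luminescence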
[17] = blockers of HIV-1 envelope-mediated cell-cell fusion – cherry-pick, dose response (AID 652057); assay type: functional, cell-based
[18] = blockers of HIV-1 ZM109 envelope-driven cell-cell fusion – HeLa effector, CEM target cells, luciferase, cherry-pick, dose response (AID 652058); assay type: functional, cell-based;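 further: luciferase signal from HIV-1 Env mediated cell-cell fusion of effector and target cells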
[19] = alpha-synuclein stem-loop luciferase translation blockers – H4 neuroglioma cells, luminescence, confirmation (AID 1988); assay type: functional, cell-based
[20] = luciferase reporter signal suppression in cells – H4 neuroglioma cells, luminescence, dose response (AID 1990); assay type: functional, cell-based
[21] = Luminescence Cell-Based Dose Response HTS to Identify Inhibitors of 5'UTR Stem-Loop Driven Prion Protein mRNA Translation in H4 Neuroglioblastoma Cells. [Related pubchem assays: 1827 (Project Summary), 1813 (Primary HTS)]; assay type: functional

Chain of Nonstructural protein 1 (Q194T2 whole entry): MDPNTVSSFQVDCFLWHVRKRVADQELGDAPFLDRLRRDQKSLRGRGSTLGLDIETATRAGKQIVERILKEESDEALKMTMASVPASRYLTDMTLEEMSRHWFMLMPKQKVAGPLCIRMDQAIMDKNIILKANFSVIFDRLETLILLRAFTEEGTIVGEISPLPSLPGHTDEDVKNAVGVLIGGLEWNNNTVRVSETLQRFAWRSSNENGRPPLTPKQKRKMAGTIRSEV
Chain of Genome polyprotein (P29990 2492-3391 limits assumed): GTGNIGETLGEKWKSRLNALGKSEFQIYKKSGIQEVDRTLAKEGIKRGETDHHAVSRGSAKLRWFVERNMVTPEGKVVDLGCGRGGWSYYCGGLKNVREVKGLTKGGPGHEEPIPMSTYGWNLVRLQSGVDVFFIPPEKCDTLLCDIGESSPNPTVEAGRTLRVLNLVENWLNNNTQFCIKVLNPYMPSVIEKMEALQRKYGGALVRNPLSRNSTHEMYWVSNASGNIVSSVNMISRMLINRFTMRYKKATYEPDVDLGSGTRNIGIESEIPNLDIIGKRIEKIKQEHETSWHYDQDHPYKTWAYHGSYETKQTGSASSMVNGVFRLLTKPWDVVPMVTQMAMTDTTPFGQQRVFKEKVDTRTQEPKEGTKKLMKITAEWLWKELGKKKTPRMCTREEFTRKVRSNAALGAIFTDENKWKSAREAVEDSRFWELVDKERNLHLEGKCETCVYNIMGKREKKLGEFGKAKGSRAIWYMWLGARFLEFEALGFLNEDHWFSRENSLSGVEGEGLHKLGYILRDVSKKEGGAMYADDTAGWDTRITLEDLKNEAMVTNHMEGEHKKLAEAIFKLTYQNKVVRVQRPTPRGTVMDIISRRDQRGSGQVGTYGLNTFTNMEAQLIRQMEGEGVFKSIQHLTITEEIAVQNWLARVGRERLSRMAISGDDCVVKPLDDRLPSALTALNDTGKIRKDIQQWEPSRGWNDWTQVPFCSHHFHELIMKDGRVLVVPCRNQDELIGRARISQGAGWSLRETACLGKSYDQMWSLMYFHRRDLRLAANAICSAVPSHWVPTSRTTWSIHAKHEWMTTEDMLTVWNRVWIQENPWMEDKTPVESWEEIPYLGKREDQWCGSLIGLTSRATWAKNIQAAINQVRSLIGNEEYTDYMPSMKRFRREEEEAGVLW

Question: For `CC(C)(C)NC(=O)C(c1ccncc1)N(Cc1ccco1)C(=O)c1ccc(-c2ccccc2)[nH]1` (centres undefined), which EC50 [1] is on record?
Answer: Its EC50 is 15.2 µM (active).

Question: What about the EC50 [2] of the same compound?
Answer: Its EC50 is > 30 µM (not active).

Question: What about the EC50 [3] of the same compound?
Answer: Its EC50 is 8.7 µM (active).

Question: With `O=C1c2ccccc2C(=O)c2c1cccc2N1CCN(Cc2ccccc2)CC1` as the compound, how does the IC50 [4] read?
Answer: Its IC50 is 7.08 µM (active).

Question: Which results are given for `O=C(/C=C/c1ccccc1Cl)c1ccc[nH]1`?
Answer: EC50 [1]: 38.9 µM (active); EC50 [2]: 24.3 µM (active); EC50 [3]: 44.6 µM (active)

Question: Which EC50 [5] does the source give for `Oc1ccc(CN2CCN(Cc3ccccc3)CC2)c2cccnc12` here?
Answer: Its EC50 is > 350 µM (not active).

Question: And the IC50 [6]?
Answer: Its IC50 is > 20 µM (inactive).

Question: What about the EC50 [7] of the same compound?
Answer: Its EC50 is > 60 µM (not active).

Question: What about the IC50 [4] of the same compound?
Answer: The IC50 was 11.2 µM (active).

Question: What about the EC50 [8] of the same compound?
Answer: Its EC50 is > 38 µM (not active).

Question: And the EC50 [9]?
Answer: The EC50 was > 160 µM (inconclusive).

Question: And the EC50 [10]?
Answer: The EC50 was > 350 µM (not active).

Question: What about the EC50 [11] of the same compound?
Answer: Its EC50 is 2.03 µM (active).

Question: Which EC50 [1] does the source give for `O=C(Nc1cc(N2CCCCC2)ncn1)c1ccc(F)cc1` here?
Answer: The EC50 was 14.1 µM (active).

Question: And the EC50 [2]?
Answer: The EC50 was 17.3 µM (active).

Question: And the EC50 [3]?
Answer: Its EC50 is > 120 µM (not active).

Question: For `Oc1cccc2c(-c3nn[nH]n3)ccnc12`, which IC50 [4] is on record?
Answer: Its IC50 is 7.24 µM (active).

Question: Which IC50 [6] does the source give for `CCC1(C)NC(=O)N(CC(=O)N2CCC(Cc3ccccc3)CC2)C1=O` (centres undefined) here?
Answer: Its IC50 is > 20 µM (inactive).

Question: With `Cc1cc2ccccn2c1C(=O)c1cc([N+](=O)[O-])cc([N+](=O)[O-])c1` as the compound, how does the IC50 [4] read?
Answer: Its IC50 is 40.7 µM (active).

Question: Which CC50 [12] does the source give for `Cc1nc(Cl)sc1C(=O)Nc1cc(F)cc(F)c1` here?
Answer: The CC50 was > 25 µM (active).

Question: For `O=C(O)c1cc([N+](=O)[O-])c(NCCC2=CCCCC2)c([N+](=O)[O-])c1`, which IC50 [13] is on record?
Answer: Its IC50 is 72.8 µM (active).

Question: What about the EC50 [14] of the same compound?
Answer: The EC50 was > 260 µM (inactive).

Question: What does the source list for `Cc1ccc(OCCCCNC(C)c2ccccc2)c(C)c1` (centres undefined)?
Answer: AC50 [15]: 2.94 µM (active); AC50 [16]: 5.36 µM (active); AC50 [17]: 3.69 µM (active); AC50 [18]: 5.29 µM (active)

Question: With `N#CC1=C2Sc3ccccc3N2CCCC1=O` as the compound, how does the EC50 [1] read?
Answer: Its EC50 is 19.7 µM (active).

Question: What about the EC50 [2] of the same compound?
Answer: Its EC50 is 59 µM (active).

Question: What about the EC50 [3] of the same compound?
Answer: The EC50 was 0.318 µM (active).

Question: Which results are given for `O=C(NCc1ccco1)c1ccc(Cn2c(=O)c3ccccc3n(Cc3cccc(Cl)c3)c2=O)cc1`?
Answer: AC50 [15]: 1.78 µM (active); AC50 [16]: 1.34 µM (active); AC50 [17]: 1.83 µM (active); AC50 [18]: 2.76 µM (active); EC50 [19]: 16.5 µM (active); EC50 [20]: 11.8 µM (active); EC50 [21]: > 120 µM (not active)

Question: With `CCOC(=O)N1CCN(C(=O)CCN2C(=O)/C(=C\c3ccccc3OC)SC2=S)CC1` as the compound, how does the CC50 [12] read?
Answer: The CC50 was > 25 µM (active).
